In patent US7511151B2 (priority 2002, dated 2009):

System: Erysiphe graminis f. sp. hordei
Conditions: in vivo

CC#CC(C)(C)NC(=O)C(OCC)Oc1cncc(Cl)c1 (stereo not shown) [1 (1), 2-(5-chloropyridyl-3-oxy)-2-(ethoxy)-N-(2-methylpent-3-yn-2-yl) acetamide]
control of disease: > 60%
